SMILES strings stand for the structures.

The target of experiment [1] is CLK3 kinase (Homo sapiens, UniProt P49761). Briefly: CLK3 kinase activity assay (Z-lyte FRET).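 Also: kinase activity read as coumarin/fluorescein emission ratio by FRET, unphosphorylated peptide as 0% and phosphorylated peptide as 100% control, values from non-linear regression of dose-response curves.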 Conditions: Z-lyte Ser/Thr 18 peptide, 156 μM ATP, 1 h at room temperature. In kind it is biochemical.
Experiment [2] concerns primary human mesenchymal stem cells (hMSCs). Briefly: Chondrogenesis screening using primary human mesenchymal stem cells. Conditions: Homo sapiens, Mesenchymal stem cells, hMSC chondrogenesis; for EC50: concentration required to induce 50% levels of chondrogenesis with TGF-β3 as positive control, read-out: Conc (nM) of 50% TGF-β3 activity; for Emax: maximum activity relative to TGF-β3 (10 ng/mL) positive control, read-out: Max. Activity as % TGF-β3 activity. In kind it is cell-based. The method in brief:
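Primary hMSCs at passage 3–6 were treated across compound concentrations, with TGF-β3 as positive control. Chondrogenic nodule area per well was normalized to 3 DMSO wells on the same plate (fold over DMSO, 2–3 replicates). EC50, maximum activity and the dose reaching it were derived.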

The target in experiment [3] is CLK2 kinase (Homo sapiens, UniProt P49760). Kind of experiment: CLK2 kinase activity assay (Z-lyte FRET).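 Also: FRET read-out as coumarin to fluorescein emission ratio, unphosphorylated peptide as 0% and phosphorylated peptide as 100% controls, duplicate reactions, non-linear regression fit of dose-response curves.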 It is filed as biochemical. Conditions: Z-lyte Ser/Thr 6 peptide, 60 μM ATP, 1 h at room temperature.
Sequence of CLK2 kinase (P49760 whole entry): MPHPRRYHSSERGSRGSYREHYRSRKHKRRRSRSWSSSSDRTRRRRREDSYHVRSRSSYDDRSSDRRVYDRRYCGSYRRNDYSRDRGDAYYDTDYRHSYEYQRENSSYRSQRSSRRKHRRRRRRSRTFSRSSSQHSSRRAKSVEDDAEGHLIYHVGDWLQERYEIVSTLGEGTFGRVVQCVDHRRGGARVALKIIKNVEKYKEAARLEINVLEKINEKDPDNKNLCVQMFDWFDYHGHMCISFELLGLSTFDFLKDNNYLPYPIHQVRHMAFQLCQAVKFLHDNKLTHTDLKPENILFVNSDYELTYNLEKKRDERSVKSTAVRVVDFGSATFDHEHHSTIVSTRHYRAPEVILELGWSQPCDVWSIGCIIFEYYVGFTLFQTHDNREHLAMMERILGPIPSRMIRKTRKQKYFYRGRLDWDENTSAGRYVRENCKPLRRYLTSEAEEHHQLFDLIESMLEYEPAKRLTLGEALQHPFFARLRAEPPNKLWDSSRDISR
Experiment [4] concerns Wnt pathway activity (SW480 colon carcinoma cells stably expressing the Sp5-Luc reporter). Briefly: Wnt pathway activity screening assay (Sp5-Luc reporter gene assay). Conditions: Homo sapiens, SW480, Table 4; SW480 cells stably expressing Sp5-Luc reporter, 10-point dose-response from 10 μM, 36 to 48 hours. For orientation: A reporter such as luciferase makes a cellular process visible.

Sequence of CLK3 kinase (P49761 whole entry): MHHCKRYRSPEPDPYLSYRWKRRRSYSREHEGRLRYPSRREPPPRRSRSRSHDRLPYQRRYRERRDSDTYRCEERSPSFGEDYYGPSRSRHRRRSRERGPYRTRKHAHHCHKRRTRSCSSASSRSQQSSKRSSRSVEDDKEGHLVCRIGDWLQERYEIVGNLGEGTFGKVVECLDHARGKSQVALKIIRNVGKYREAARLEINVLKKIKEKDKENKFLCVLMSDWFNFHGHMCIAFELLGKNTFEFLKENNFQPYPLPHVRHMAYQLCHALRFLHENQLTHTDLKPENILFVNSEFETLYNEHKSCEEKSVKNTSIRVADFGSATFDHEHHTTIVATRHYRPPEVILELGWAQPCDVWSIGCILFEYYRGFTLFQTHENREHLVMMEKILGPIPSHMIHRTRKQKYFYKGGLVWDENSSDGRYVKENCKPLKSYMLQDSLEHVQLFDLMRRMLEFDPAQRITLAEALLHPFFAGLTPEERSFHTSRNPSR

For the molecule `Nc1cncc(-c2ccc3[nH]nc(-c4nc5c(-c6ccccc6F)nccc5[nH]4)c3c2)c1` [compound 165], the EC50 in experiment [1] came to 0.02 µM; in experiment [2], 100 nM; in experiment [3], 0.002 µM; in experiment [4], 0.0088 µM. In addition, the Emax in experiment [2] was determined as 61.9%.

Consider `CC(C)(C)C(=O)Nc1cncc(-c2ccc3[nH]nc(-c4nc5c(-c6ccc(F)s6)ccnc5[nH]4)c3c2)c1` [compound 262], for which the EC50 was 0.754 µM in experiment [1], 30 nM in experiment [2], 0.085 µM in experiment [3] and 0.0167 µM in experiment [4]. Also, the Emax in experiment [2] was 120%.

`CN(C)Cc1cncc(-c2cnc3[nH]nc(-c4cc5c(-c6cccc(F)c6)cncc5[nH]4)c3c2)c1` [compound 310]: the EC50 in experiment [1] was 0.074 µM; in experiment [2], 10 nM; in experiment [3], 0.004 µM; in experiment [4], 1.18 µM. In addition, in experiment [2], the Emax was 110%.

As to `c1cc2[nH]c(-c3n[nH]c4ccc(-c5cncc(CN6CCCCC6)c5)cc34)cc2cn1` [compound 448], the EC50 in experiment [1] came to 0.028 µM; in experiment [3] it was 0.003 µM; in experiment [4] it was 0.685 µM. Also, the Emax in experiment [2] is 122%.

As for `CN(C)Cc1cncc(-c2ccc3[nH]nc(-c4cc5c(N6CCCCC6)nccc5[nH]4)c3c2)c1` [compound 465], the values for the EC50 in experiment [1], in experiment [3] and in experiment [4] were 0.293 µM, 0.002 µM and 4.71 µM, respectively. The Emax in experiment [2] stood at 220%.

As to `O=C(Nc1cncc(-c2ccc3[nH]nc(-c4cc5ccncc5[nH]4)c3n2)c1)C1CCCC1` [compound 430], the EC50 in experiment [1] is 0.147 µM; in experiment [2], 30 nM; in experiment [3], 0.007 µM; in experiment [4], 2.63 µM. Besides, the Emax in experiment [2] turned out to be 50.3%.

Take `CC(C)CC(=O)Nc1cncc(-c2cc3c(-c4cc5cccnc5[nH]4)n[nH]c3cn2)c1` [compound 423]: the EC50 was 6.21 µM in experiment [1], 0.021 µM in experiment [3] and more than 10 µM in experiment [4]. Further, the Emax in experiment [2] was 40.4%.

As to `CC(C)Nc1cncc(-c2ccc3[nH]nc(-c4cc5c(-c6cccnc6)cccc5[nH]4)c3c2)c1` [compound 359], the EC50 in experiment [1] is 0.962 µM; in experiment [2], 10 nM; in experiment [3], 0.006 µM; in experiment [4] it was 0.1 µM. In addition, in experiment [2], the Emax came to 226%.

On to `O=C(Nc1cncc(-c2ccc3[nH]nc(-c4cc5c(-c6cccnc6)nccc5[nH]4)c3c2)c1)c1ccccc1` [compound 357], for which the figures for the EC50 in experiment [1], in experiment [3] and in experiment [4] were 0.043 µM, 0.003 µM and 0.421 µM, respectively. The Emax in experiment [2] turned out to be 19.4%.

For the molecule `O=C(Nc1cncc(-c2cnc3[nH]nc(-c4cc5c(-c6cccs6)nccc5[nH]4)c3c2)c1)C1CCC1` [compound 507], the EC50 in experiment [1] came to 0.06 µM; in experiment [2], 100 nM; in experiment [3], 0.01 µM; in experiment [4], 0.473 µM. Also, the Emax in experiment [2] was 82.2%.

On to `CCC(=O)Nc1cncc(-c2ccc3[nH]nc(-c4cc5c(-c6cccc(F)c6)cncc5[nH]4)c3c2)c1` [compound 303], for which the EC50 in experiment [1] worked out at 0.085 µM; in experiment [3], 0.015 µM; in experiment [4], 0.045 µM. Also, the Emax in experiment [2] is 33.5%.

For `COc1cncc(C(=O)Nc2c[nH]nc2C(=O)Nc2ccc(OCCN3CCCC3)nc2)c1` [compound 5], the EC50 in experiment [1] was 4.93 µM; in experiment [2], 10 nM; in experiment [3], 0.02 µM; in experiment [4], 0.0223 µM. Further, the Emax in experiment [2] was 106%.

Regarding `CC(C)C(=O)Nc1cncc(-c2cc3c(-c4cc5cnccc5[nH]4)n[nH]c3cn2)c1` [compound 419], the EC50 in experiment [1] was 0.016 µM; in experiment [2], 30 nM; in experiment [3], 0.001 µM; in experiment [4], 0.399 µM. In addition, the Emax in experiment [2] came to 61.2%.

In the case of `O=C(Nc1cncc(-c2cc3c(-c4nc5c(-c6cccs6)nccc5[nH]4)n[nH]c3cn2)c1)C1CC1` [compound 257], the EC50 was found to be 0.115 µM in experiment [1], 0.007 µM in experiment [3] and 0.0222 µM in experiment [4]. In experiment [2], the Emax is 68.3%.

Turning to `Nc1cncc(-c2ccc3[nH]nc(-c4nc5c(-c6ccccc6F)ccnc5[nH]4)c3c2)c1` [compound 167], the EC50 came out at 0.019 µM in experiment [1], 30 nM in experiment [2], 0.004 µM in experiment [3] and 0.002 µM in experiment [4]. For the same molecule, the Emax in experiment [2] turned out to be 113%.

As for `CN1CCN(c2cncc3[nH]c(-c4n[nH]c5ccc(-c6cncc(N7CCOCC7)c6)cc45)nc23)CC1` [compound 218], the EC50 turned out to be 0.032 µM in experiment [1], 0.001 µM in experiment [3] and 0.083 µM in experiment [4]. In experiment [2], the Emax worked out at 63.8%.

On to `Clc1ccc(-c2cncc3[nH]c(-c4n[nH]c5ccc(-c6cncc(CN7CCCC7)c6)nc45)nc23)s1` [compound 270], for which the EC50 in experiment [1] was found to be 0.088 µM; in experiment [2], 10 nM; in experiment [3], 0.004 µM; in experiment [4], 3.33 µM. In addition, in experiment [2], the Emax amounted to 62%.

With `CCNCc1cncc(-c2cnc3[nH]nc(-c4cc5c(-c6cccnc6)ccnc5[nH]4)c3c2)c1` [compound 366], the EC50 is 0.074 µM in experiment [1], 10 nM in experiment [2], 0.004 µM in experiment [3] and more than 10 µM in experiment [4]. In experiment [2], the Emax amounted to 91.8%.

`Cc1ccncc1-c1ccc2[nH]nc(-c3nc4c(-c5ccsc5)nccc4[nH]3)c2c1` [compound 242]: the EC50 in experiment [1] is 0.076 µM; in experiment [2] it was 10 nM; in experiment [3] it was 0.015 µM; in experiment [4] it was 0.0189 µM. Moreover, the Emax in experiment [2] was found to be 156%.

Regarding `CCCCC(=O)Nc1cncc(-c2ccc3[nH]nc(-c4cc5c(N6CCCCC6)cccc5[nH]4)c3n2)c1` [compound 458], the EC50 in experiment [1] is 2.19 µM; in experiment [2], 100 nM; in experiment [3], 0.02 µM; in experiment [4] it was 0.572 µM. For the same molecule, the Emax in experiment [2] is 68.6%.

For `Fc1ccc(-c2cncc3[nH]c(-c4n[nH]c5cnc(-c6cncc(CN7CCC(F)(F)C7)c6)cc45)cc23)cc1` [compound 317], the EC50 in experiment [1] is 9.84 µM; in experiment [2], 100 nM; in experiment [3], 0.016 µM; in experiment [4], 3.26 µM. Further, the Emax in experiment [2] was 78.4%.

As to `c1cc2cc(-c3n[nH]c4ccc(-c5cncc(OCCN6CCCC6)c5)cc34)[nH]c2cn1` [compound 452], the figures for the EC50 in experiment [1], in experiment [3] and in experiment [4] were 0.068 µM, 0.002 µM and 1.85 µM, respectively. Also, the Emax in experiment [2] was determined as 44.6%.

As for `Cn1cc(-c2cc3c(-c4nc5c(-c6cccc(F)c6)nccc5[nH]4)n[nH]c3cn2)cn1` [compound 156], the EC50 in experiment [1] is 1.8 µM; in experiment [2] it was 100 nM; in experiment [3], 0.01 µM; in experiment [4], 0.01 µM. Further, the Emax in experiment [2] is 110%.

As for `CCNCc1cncc(-c2cc3c(-c4cc5c(-c6ccccc6F)ccnc5[nH]4)n[nH]c3cn2)c1` [compound 335], the EC50 in experiment [1] was 2.31 µM; in experiment [2], 30 nM; in experiment [3], 0.019 µM; in experiment [4] it was more than 10 µM. Moreover, in experiment [2], the Emax was 270%.

`O=C(Nc1cncc(-c2ccc3[nH]nc(-c4cc5c(-c6ccccc6F)nccc5[nH]4)c3c2)c1)C1CCCC1` [compound 331]: the EC50 in experiment [1] stood at 0.158 µM; in experiment [3], 0.015 µM; in experiment [4], 0.418 µM. The Emax in experiment [2] worked out at 70.8%.

For the molecule `O=C(Nc1cncc(-c2cnc3[nH]nc(-c4nc5c(-c6cccnc6)cncc5[nH]4)c3c2)c1)C1CCC1` [compound 191], the EC50 in experiment [1] was determined as 0.049 µM; in experiment [2] it was 300 nM; in experiment [3] it was 0.003 µM; in experiment [4] it was 0.0354 µM. In experiment [2], the Emax is 130%.

As for `O=C(Nc1cncc(-c2ccc3[nH]nc(-c4cc5c(-c6cccnc6)cncc5[nH]4)c3c2)c1)c1ccccc1` [compound 358], the figures for the EC50 in experiment [1], in experiment [3] and in experiment [4] were 0.071 µM, 0.007 µM and more than 10 µM, respectively. Moreover, the Emax in experiment [2] was 68.5%.

As to `O=C(CC1CCNCC1)Nc1cncc(-c2cc3c(-c4nc5c(-c6cccc(F)c6)ccnc5[nH]4)n[nH]c3cn2)c1` [compound 128], the EC50 in experiment [1] was found to be 0.028 µM; in experiment [3], 0.002 µM; in experiment [4], 0.345 µM. The Emax in experiment [2] turned out to be 54.7%.

As to `CN(C)c1cncc(-c2ccc3[nH]nc(-c4nc5c(-c6cccs6)cncc5[nH]4)c3n2)c1` [compound 258], the EC50 stood at 0.083 µM in experiment [1], 10 nM in experiment [2], 0.002 µM in experiment [3] and 0.71 µM in experiment [4]. In experiment [2], the Emax worked out at 65.6%.

`Cc1cn(-c2nccc3[nH]c(-c4n[nH]c5ccc(-c6cncc(NC(=O)CC(C)C)c6)nc45)nc23)cn1` [compound 226]: the EC50 in experiment [1] was determined as 0.116 µM; in experiment [2], 30 nM; in experiment [3], 0.004 µM; in experiment [4], 2.9 µM. Further, the Emax in experiment [2] is 69.3%.

On to `CCCC(=O)Nc1cncc(-c2ccc3[nH]nc(-c4nc5c(-c6ccsc6)ccnc5[nH]4)c3c2)c1` [compound 245], for which the EC50 was determined as 9.84 µM in experiment [1], 30 nM in experiment [2], 0.034 µM in experiment [3] and 0.0077 µM in experiment [4]. The Emax in experiment [2] turned out to be 72.6%.

The record behind these values is US20230000842A1, “METHODS OF TREATING CARTILAGE DISORDERS THROUGH INHIBITION OF CLK AND DYRK” (SAMUMED, LLC, priority 2019, published 2023).
